Key:
PGA-1 cells = test: alamarBlue cell viability assay; settings: Homo sapiens, 24 h; for IC50: read-out: PGA-1 IC50
[1] = tested on: HG-3 and PGA-1 cell lines; test: alamarBlue cell viability assay, mean of both CLL cell lines; format: cell-based, human; settings: Homo sapiens, CLL cell; mean of HG-3 and PGA-1
leukemia cell panel = test: NCI-60 five-dose assay, leukemia cell panel mean; format: cell-based, human; settings: Homo sapiens; mean across the six leukemia cell lines
K-562 = test: NCI-60 five-dose assay; format: cell-based, human
melanoma cell lines = test: NCI-60 five-dose assay, melanoma cell lines; format: cell-based, human; settings: Homo sapiens; range over melanoma cell lines
Procedure: (§1) A number of our most promising compounds identified through preliminary cell viability testing (23c, 23d, 23f, 23h, 23l, 23m, 23n, 23o, 24f, 24l, 25n and 26n) were selected for NCI drug screening in the 60-cell-line panel. The panel includes nine subcategories based on cancer tissue types, which include leukemia, ovarian, central nervous system, breast, lung, prostate, skin, renal and colon cancer. The compounds were initially assessed in a one-dose assay at a fixed treatment concentration of 10 µM. The compounds selected for further investigation were progressed to a five-dose assay across the concentration ranges of 0.01, 0.1, 1, 10 and 100 µM [72]. The endpoints assessed in the screening protocol were GI50, TGI and LC50 [72].

COLO205 = test: NCI-60 five-dose assay; format: cell-based, human; settings: Homo sapiens, COLO 205
Procedure: as §1

HOP-62 = test: NCI-60 five-dose assay; format: cell-based, human; settings: Homo sapiens
Procedure: as §1

UO-31 = test: NCI-60 five-dose assay; format: cell-based, human; settings: Homo sapiens
Procedure: as §1

SK-MEL-28 = test: NCI-60 five-dose assay; format: cell-based, human; settings: Homo sapiens
Procedure: as §1

HCT-2998 = test: NCI-60 five-dose assay; format: cell-based, human; settings: Homo sapiens
Procedure: as §1

SK-MEL-5 = test: NCI-60 five-dose assay; format: cell-based, human; settings: Homo sapiens
Procedure: as §1

ACHN = test: NCI-60 five-dose assay; format: cell-based, human; settings: Homo sapiens
Procedure: as §1

MDA-MB-435 = test: NCI-60 five-dose assay; format: cell-based, human; settings: Homo sapiens
Procedure: as §1

MCF-7 = test: NCI-60 five-dose assay; format: cell-based, human; settings: Homo sapiens, MCF7
Procedure: as §1

LOX IMV1 = test: NCI-60 five-dose assay; format: cell-based, human; settings: Homo sapiens
Procedure: as §1

NCI-H460 = test: NCI-60 five-dose assay; format: cell-based, human; settings: Homo sapiens
Procedure: as §1

DU-145 = test: NCI-60 five-dose assay; format: cell-based, human; settings: Homo sapiens
Procedure: as §1

HT29 = test: NCI-60 five-dose assay; format: cell-based, human
Procedure: as §1

TK-10 = test: NCI-60 five-dose assay; format: cell-based, human; settings: Homo sapiens
Procedure: as §1

OVCAR-4 = test: NCI-60 five-dose assay; format: cell-based, human; settings: Homo sapiens
Procedure: as §1

NCI-H552 = test: NCI-60 five-dose assay; format: cell-based, human; settings: Homo sapiens
Procedure: as §1

SNB-19 = test: NCI-60 five-dose assay; format: cell-based, human; settings: Homo sapiens
Procedure: as §1

NCI/ADR-RES = test: NCI-60 five-dose assay; format: cell-based, human; settings: Homo sapiens
Procedure: as §1

IGROV1 = test: NCI-60 five-dose assay; format: cell-based, human; settings: Homo sapiens, IGROV-1
Procedure: as §1

HCT-116 = test: NCI-60 five-dose assay; format: cell-based, human; settings: Homo sapiens
Procedure: as §1

RXF 393 = test: NCI-60 five-dose assay; format: cell-based, human; settings: Homo sapiens
Procedure: as §1

UACC-257 = test: NCI-60 five-dose assay; format: cell-based, human; settings: Homo sapiens
Procedure: as §1

SK-MEL-2 = test: NCI-60 five-dose assay; format: cell-based, human; settings: Homo sapiens
Procedure: as §1

MDA-MB-468 = test: NCI-60 five-dose assay; format: cell-based, human; settings: Homo sapiens
Procedure: as §1

CAKI-1 = test: NCI-60 five-dose assay; format: cell-based, human; settings: Homo sapiens
Procedure: as §1

SW-620 = test: NCI-60 five-dose assay; format: cell-based, human; settings: Homo sapiens
Procedure: as §1

HS 578T = test: NCI-60 five-dose assay; format: cell-based, human; settings: Homo sapiens
Procedure: as §1

HOP-92 = test: NCI-60 five-dose assay; format: cell-based, human; settings: Homo sapiens
Procedure: as §1

MDA-MB-231/ATCC = test: NCI-60 five-dose assay; format: cell-based, human; settings: Homo sapiens
Procedure: as §1

EKVX = test: NCI-60 five-dose assay; format: cell-based, human; settings: Homo sapiens
Procedure: as §1

NCI-H332M = test: NCI-60 five-dose assay; format: cell-based, human; settings: Homo sapiens
Procedure: as §1

786-0 = test: NCI-60 five-dose assay; format: cell-based, human; settings: Homo sapiens
Procedure: as §1

U251 = test: NCI-60 five-dose assay; format: cell-based, human; settings: Homo sapiens, U-251
Procedure: as §1

SN12C = test: NCI-60 five-dose assay; format: cell-based, human; settings: Homo sapiens
Procedure: as §1

BT-549 = test: NCI-60 five-dose assay; format: cell-based, human; settings: Homo sapiens
Procedure: as §1

A498 = test: NCI-60 five-dose assay; format: cell-based, human; settings: Homo sapiens
Procedure: as §1

SF539 = test: NCI-60 five-dose assay; format: cell-based, human; settings: Homo sapiens, SF-539
Procedure: as §1

OVCAR-8 = test: NCI-60 five-dose assay; format: cell-based, human; settings: Homo sapiens
Procedure: as §1

UACC-62 = test: NCI-60 five-dose assay; format: cell-based, human; settings: Homo sapiens
Procedure: as §1

SK-OV-3 = test: NCI-60 five-dose assay; format: cell-based, human; settings: Homo sapiens
Procedure: as §1

PC-3 = test: NCI-60 five-dose assay; format: cell-based, human; settings: Homo sapiens
Procedure: as §1

MALME-3M = test: NCI-60 five-dose assay; format: cell-based, human; settings: Homo sapiens, Malme-3M
Procedure: as §1

RPMI-8226 = test: NCI-60 five-dose assay; format: cell-based, human

`O=C(C=CC12c3ccccc3C(c3ccccc31)C1C(=O)N(c3ccc(Cl)cc3)C(=O)C12)c1ccccn1` (centres unmarked) [Compound 25n, (E)-13-(4-Chlorophenyl)-9-(3-oxo-3-(pyridin-2-yl)prop-1-en-1-yl)-9,10-dihydro-9,10-[3,4]epipyrroloanthracene-12,14-dione] was tested, and the IC50 (PGA-1 cells) was 870 nM, the viability at 1 µM (PGA-1 cells; read-out: cell viability) was 25% and the viability at 10 µM (PGA-1 cells; read-out: cell viability) was 7%. It also gave an IC50 [1] of 1090 nM, a GI50 (leukemia cell panel) of 290 nM and a GI50 (K-562; Homo sapiens, K562, K-562) of 290 nM. The GI50 (K-562; K-562) was 293 nM, the GI50 (melanoma cell lines) was 194 to 1080 nM and the GI50 (COLO205) was 1160 nM. For the same compound, the GI50 (HOP-62) was 587 nM, the GI50 (UO-31) was 208 nM and the GI50 (SK-MEL-28) was 455 nM. The GI50 (HCT-2998) was 335 nM, the GI50 (SK-MEL-5) was 1080 nM and the GI50 (ACHN) was 299 nM. For the same compound, the GI50 (MDA-MB-435) was 298 nM, the GI50 (MCF-7) was 326 nM and the GI50 (LOX IMV1) was 194 nM. For the same compound, the GI50 (NCI-H460) was 241 nM, the GI50 (DU-145) was 410 nM and the GI50 (HT29; Homo sapiens, HT-29, HT29) was 335 nM. It also gave an IC50 (HT29; chemoresistant HT-29 human colorectal adenocarcinoma cell line) of 335 nM, a GI50 (TK-10) of 1460 nM and a GI50 (OVCAR-4) of 764 nM. The GI50 (NCI-H552) was 331 nM, the GI50 (SNB-19) was 425 nM and the GI50 (NCI/ADR-RES) was 356 nM. The GI50 (IGROV1) was 236 nM, the GI50 (HCT-116) was 212 nM and the GI50 (RXF 393) was 222 nM. It also gave a GI50 (UACC-257) of 496 nM, a GI50 (SK-MEL-2) of 670 nM and a GI50 (MDA-MB-468) of 627 nM. It also gave a GI50 (CAKI-1) of 1070 nM, a GI50 (SW-620) of 299 nM and a GI50 (HS 578T) of 458 nM. It also gave a GI50 (HOP-92) of 1190 nM, a GI50 (MDA-MB-231/ATCC) of 463 nM and a GI50 (EKVX) of 491 nM. For the same compound, the GI50 (NCI-H332M) was 821 nM, the GI50 (786-0) was 216 nM and the GI50 (U251) was 358 nM. It also gave a GI50 (SN12C) of 415 nM, a GI50 (BT-549) of 295 nM and a GI50 (A498) of 539 nM. It also gave a GI50 (SF539) of 316 nM, a GI50 (OVCAR-8) of 409 nM and a GI50 (UACC-62) of 400 nM. The GI50 (SK-OV-3) was 3300 nM, the GI50 (PC-3) was 436 nM and the GI50 (MALME-3M) was 316 nM. For the same compound, the GI50 (RPMI-8226; Homo sapiens, RPMI-8226, RPMI-8226) was 250 nM and the GI50 (RPMI-8226; RPMI-8226) was 252 nM.
`O=C(C=CC12c3ccccc3C(c3ccccc31)C1C(=O)NC(=O)C12)c1ccc(Br)cc1` (centres unmarked) [Compound 23a, 9-(E)-3-(4-Bromophenyl)-3-oxoprop-1-en-1-yl)-9,10-dihydro-9,10-[3,4]epipyrroloanthracene-12,14-dione] was tested, and the IC50 (PGA-1 cells) was 1970 nM, the viability at 10 µM (PGA-1 cells; read-out: cell viability) was 3% and the IC50 [1] was 2330 nM.

Reference: paper PMC11359702, “Synthesis and Biochemical Evaluation of Ethanoanthracenes and Related Compounds: Antiproliferative and Pro-Apoptotic Effects in Chronic Lymphocytic Leukemia (CLL)” (Pharmaceuticals, 2024)
